Read-outs that look alike come from different tables or passages of the source.
Tests used:
[1] = test system: HCV replicon cells; assay: HCV replicon FRET / luciferase assay (96-well plates); format: cell-based; settings: Hepatitis C virus
Outline: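 Readout was NS3 protease cleavage of an EDANS/DABCYL FRET peptide (20 μM final) in lysed HCV replicon cells, or Renilla luciferase in reporter replicons. Background came from wells with the highest level of control protease inhibitor. EC50 marked the concentration giving 50% signal reduction.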

[2] = molecular target: T1, HCV NS5B RdRp genotype 1b (Hepatitis C virus genotype 1b, UniProt Q9WMX2); assay: Standard HCV NS5B RdRp enzyme assay; format: biochemical
T1 construct: The protein was expressed with an 18 amino acid C-terminal truncation to enhance the solubility; made in house; host or cells: E. coli BL21(DE3), pET21a vector
T1 sequence (Q9WMX2 2420-2992): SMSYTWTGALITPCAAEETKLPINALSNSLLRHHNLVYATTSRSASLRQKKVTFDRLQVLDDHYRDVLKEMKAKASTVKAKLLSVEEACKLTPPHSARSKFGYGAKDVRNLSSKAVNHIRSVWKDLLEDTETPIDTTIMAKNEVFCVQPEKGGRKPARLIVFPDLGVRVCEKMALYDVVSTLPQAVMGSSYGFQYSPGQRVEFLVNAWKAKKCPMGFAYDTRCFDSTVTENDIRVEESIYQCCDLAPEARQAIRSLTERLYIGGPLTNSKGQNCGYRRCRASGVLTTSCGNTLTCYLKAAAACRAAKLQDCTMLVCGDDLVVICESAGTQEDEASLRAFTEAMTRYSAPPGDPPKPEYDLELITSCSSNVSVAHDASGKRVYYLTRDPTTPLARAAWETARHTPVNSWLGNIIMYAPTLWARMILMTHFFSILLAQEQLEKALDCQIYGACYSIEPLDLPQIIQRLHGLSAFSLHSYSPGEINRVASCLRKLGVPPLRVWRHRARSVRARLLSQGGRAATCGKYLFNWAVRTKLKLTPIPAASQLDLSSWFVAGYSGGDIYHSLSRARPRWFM
Outline: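 Radiometric SPA measuring 3H-UMP incorporation on polyA/biotin-oligo-dT12 (6 nM/180 nM), 0.29 μM total UTP. Enzyme: NS5B 1b lacking last 18 residues, 28 nM final, 30° C for 60 min in 20 mM Hepes pH 7.5, 2.5 mM MgCl2, 2% DMSO. IC50 from seven-point curves.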

[3] = Table 1b, HCV replicon, read-out: EC50
[4] = Table 1b, HCV NS5B RdRp genotype 1b, read-out: IC50
[5] = Table 1a, HCV replicon, read-out: EC50
[6] = Table 1a, HCV NS5B RdRp genotype 1b, read-out: IC50

Row | SMILES | EC50 [1, 5] | IC50 [2, 6] | further results
1 | CNC(=O)c1c(-c2ccc(F)cc2)oc2ccc(-c3cc(C(=O)NCC(C)C)ccc3OCC3CCCN3)cc12 (centres unmarked) |  |  | EC50 [1, 3]: 250 to 1000 nM; IC50 [2, 4]: < 250 nM
2 | CNC(=O)c1c(-c2ccc(F)cc2)oc2ccc(-c3cc(C(=O)NCC(C)C)ccc3OCC3CCNC3)cc12 (centres unmarked) |  |  | EC50 [1, 3]: < 250 nM; IC50 [2, 4]: < 250 nM
3 | CNC(=O)c1c(-c2ccc(F)cc2)oc2ccc(-c3cc(C(=O)NC4(c5ccn(C)n5)CC4)c(OC)cc3C)cc12 |  |  | EC50 [1, 3]: < 250 nM; IC50 [2, 4]: < 250 nM
4 | CNC(=O)c1c(-c2ccc(F)cc2)oc2ccc(-c3cc(CO)ccc3Cl)cc12 | 1000 to 10000 nM | > 10000 nM | 
5 | CNC(=O)c1c(-c2ccc(F)cc2)oc2ccc(-c3cccc(C(=O)Nc4cccc(C(=O)O)c4O)c3)cc12 | > 10000 nM | 250 to 1000 nM | 
6 | CNC(=O)c1c(-c2ccc(F)cc2)oc2ccc(-c3cccc(C(=O)O)c3)cc12 | > 10000 nM | 1000 to 10000 nM | 
7 | CNC(=O)c1c(-c2ccc(F)cc2)oc2ccc(-c3cccc(C(=O)N(C)CCO)c3)cc12 | 1000 to 10000 nM | 1000 to 10000 nM | 
8 | CNC(=O)c1c(-c2ccc(F)cc2)oc2ccc(-c3cccc(C(=O)N4CC[C@H](NC(C)=O)C4)c3)cc12 [drawing 277] | > 10000 nM | 1000 to 10000 nM | 
9 | CNC(=O)c1c(-c2ccc(F)cc2)oc2ccc(-c3ccc(C(=O)NCC(N)=O)cc3)cc12 | > 10000 nM | > 10000 nM | 
10 | CNC(=O)c1c(-c2ccc(F)cc2)oc2ccc(-c3ccc(Cl)c(C(=O)NC(C)(C)c4ccccc4)c3)cc12 | < 250 nM | < 250 nM | 
11 | CNC(=O)c1c(-c2ccc(F)cc2)oc2ccc(-c3cccc(NC(C)=O)c3)cc12 | 1000 to 10000 nM | 1000 to 10000 nM | 
12 | CNC(=O)c1c(-c2ccc(F)cc2)oc2ccc(-c3cc(C(=O)NC4(c5ncccn5)CC4)c(C)cc3C)cc12 |  |  | EC50 [1, 3]: < 250 nM; IC50 [2, 4]: < 250 nM
13 | CNC(=O)c1c(-c2ccc(F)cc2)oc2ccc(-c3cc(C(=O)NC4(c5ncc(C)s5)CC4)ccc3C)cc12 [drawing 625] |  |  | EC50 ([1]; 24 h, Table 1d (class symbols), HCV replicon, read-out: EC50): 1 to 250 nM; IC50 ([2]; Table 1d (class symbols), HCV NS5B RdRp genotype 1b, read-out: IC50): < 20 nM
14 | CNC(=O)c1c(-c2ccc(F)cc2)oc2ccc(-c3cccc(C(=O)NC(C)(C)CC(C)(C)C)c3)cc12 | < 250 nM | 250 to 1000 nM | 
15 | CNC(=O)c1c(-c2ccc(F)cc2)oc2ccc(-c3cccc(C(=O)NC(C)(C)C(=O)Nc4nccs4)c3)cc12 | < 250 nM | < 250 nM | 
16 | CNC(=O)Nc1c(-c2ccc(F)cc2)oc2ccc(OC(C)C)cc12 | > 10000 nM | > 10000 nM | 

Row | SMILES | EC50 [1, 5] | IC50 [2, 6] | further results
17 | CNC(=O)c1c(-c2ccc(F)cc2)oc2ccc(-c3ccc(/C=C/C(=O)O)cc3)cc12 | 1000 to 10000 nM | 1000 to 10000 nM | 
18 | CCOC(=O)C1CCCN(C(=O)c2cccc(-c3ccc4oc(-c5ccc(F)cc5)c(C(=O)NC)c4c3)c2)C1 (centres unmarked) | 1000 to 10000 nM | 1000 to 10000 nM | 
19 | CNC(=O)c1c(-c2ccc(F)cc2)oc2ccc(-c3ccc(-c4ccccc4OC)c(C(=O)NCC(C)C)c3)cc12 |  |  | EC50 [1, 3]: < 250 nM; IC50 [2, 4]: < 250 nM
20 | CNC(=O)c1c(-c2ccc(F)cc2)oc2cc([N+](=O)[O-])c(-c3cc(C(=O)NCC(C)C)ccc3OC)cc12 | 250 to 1000 nM | 250 to 1000 nM | 
21 | CNC(=O)c1c(-c2ccc(F)cc2)oc2ccc(-c3ccc(F)c(C(=O)O)c3)cc12 | > 10000 nM | 1000 to 10000 nM | 
22 | CNC(=O)c1c(-c2ccc(F)cc2)oc2ccc(-c3cccc(C(=O)N4C5CCC4CN(C)C5)c3)cc12 |  |  | EC50 [1]: 1000 to 10000 nM; IC50 [2]: 1000 to 10000 nM
23 | CNC(=O)c1c(-c2ccc(F)cc2)oc2ccc(-c3cc(C(=O)NC4(c5nnc(-c6ccc(OC)cc6)[nH]5)CC4)ccc3C)cc12 |  |  | EC50 [1, 3]: < 250 nM; IC50 [2, 4]: < 250 nM
24 | CNC(=O)c1c(-c2ccc(F)cc2)oc2ccc(-c3cccc(C(=O)N(C)Cc4ccccc4)c3)cc12 | 250 to 1000 nM | 250 to 1000 nM | 
25 | CNC(=O)c1c(-c2ccc(F)cc2)oc2ccc(-c3cc(C(=O)NC4(c5ccccn5)CC4)ccc3OCCN)cc12 |  |  | EC50 [1, 3]: < 250 nM; IC50 [2, 4]: < 20 nM
26 | CNC(=O)c1c(-c2ccc(F)cc2)oc2ccc(-c3cccc(C(=O)NC(CCO)c4ccccc4)c3)cc12 (centres unmarked) | 250 to 1000 nM | < 250 nM | 
27 | CNC(=O)c1c(-c2ccc(F)cc2)oc2ccc(-c3cccc(C(=O)NCc4nccs4)c3)cc12 | 250 to 1000 nM | 250 to 1000 nM | 
28 | CNC(=O)c1c(-c2ccc(F)cc2)oc2ccc(-c3cccc(C(=O)NC(CO)C(=O)OC)c3)cc12 (centres unmarked) | 1000 to 10000 nM | 250 to 1000 nM | 
29 | CNC(=O)c1c(-c2ccc(F)cc2)oc2ccc(-c3ccc(C(=O)N4CCC[C@@H]4COC)cc3)cc12 [drawing 621] |  |  | EC50 ([1]; untitled table after Table 1b, HCV replicon, values without asterisk, read-out: EC50): 15400 nM; IC50 ([2]; untitled table after Table 1b, HCV NS5B RdRp genotype 1b, read-out: IC50): 10400 nM
30 | CNC(=O)c1c(-c2ccc(F)cc2)oc2ccc(-c3sccc3C(=O)O)cc12 | > 10000 nM | > 10000 nM | 
31 | CNC(=O)c1c(-c2ccc(F)cc2)oc2ccc(-c3cccc(-c4nc(-c5ccccc5)c[nH]4)c3)cc12 |  |  | EC50 [1, 3]: < 250 nM; IC50 [2, 4]: 250 to 1000 nM

— US8309558B2, “Compounds for the treatment of hepatitis C” (Bristol-Myers Squibb Company, priority 2008, dated 2012)
